# US4607024A, “Epoxypropylphosphonate salt of jesamycin and pharmaceutical composition containing same” (Schering S.p.A., priority 1983, dated 1986)
# Where a name gives a salt, the structure may show the parent alone. Read-outs that look alike come from different tables or passages of the source.
# Tests used:
# [1] = parameters: species or system New Zealand rabbits; settings: rabbit, in vivo, po; for haematic levels of Josamycin at the 6th hour: 6 h
# Method: The determination of the Josamycin levels was performed both by biological way (Grove, D. C., and Randall, W. A., 1955) and by High Pressure Liquid Chromatography (HPLC).
# [2] = Toxicity (general statement)
# male Wistar rats = assay: Chronic toxicity, 3 months; type: in vivo; settings: 250 mg/kg daily oral or 50 mg/kg daily subcutaneous, body weight, haematic crasis, urinary elimination, biochemical parameters, anatomo-pathology
# Method: Three groups of male Wistar rats (average weight: 155 g) were used in this experiment. A first group received a daily dosage of 250 mg/kg of the compound to be tested by oral route, a second group received a daily amount of 50 mg/kg of the same substance by subcutaneous route, a third group (controls) received nothing. The experiment was carried on for 3 consecutive months.
# Since the beginning, as well as during and after the treatment, the animals were constantly monitored with respect to the increase in body weight, the haematic crasis, the urinary elimination and various biochemical parameters. At the end of the treatment, all the animals were sacrificed and subjected to anatomo-pathological investigations.
# in vivo [3] = assay: in vivo; parameters: species or system Wistar rats of both sexes; settings: rat, rats
# Method: (§1) The acute toxicity of the compound of the invention was determined on mice and rats (Swiss mice of both sexes and Wistar rats of both sexes), after oral and intravenous administration of the compound of the invention. It was expressed as an LD50 value, calculated according to the method of Lichtfield and Wilcoxon. The obtained intravenous values were 418 mg/kg in rats and 386 mg/kg in mice.
# [4] = test system: Josamycin-sensitive bacteria; assay: Antibacterial spectrum in vivo, infected mice; settings: versus Josamycin
# pregnant rabbits = assay: Teratological investigation in pregnant rabbits; type: in vivo; settings: 50 mg/kg s.c. or 300 mg/kg p.o. daily, 7th to 15th day of pregnancy
# [5] = test system: Josamycin-sensitive bacteria; assay: Antibacterial spectrum (general statement); settings: versus Josamycin
# newborns = assay: Neonatal investigation (growth and survival of the newborns); type: in vivo; settings: 30 days from birth, versus controls
# Solubility in water = type: physicochemical
# [6] = test system: Josamycin-sensitive bacteria; assay: Antibacterial spectrum in vitro, agar dilution method; type: cell-based; settings: versus Josamycin
# [7] = Absorption, haematic and tissue levels (general statement); type: in vivo
# in vivo [8] = assay: in vivo; parameters: species or system Swiss mice of both sexes; settings: mouse, mice
# Method: as §1
# pregnant rats = assay: Teratological investigation in pregnant rats; type: in vivo; settings: 50 mg/kg s.c. or 300 mg/kg p.o. daily, 1st to 15th day of pregnancy
# [9] = oral, could not be determined, no deaths up to 5000 mg/kg, read-out: oral LD50
structure (smiles),measurement,setting,value
"CO[C@@H]1[C@@H](O[C@@H]2O[C@H](C)[C@@H](O[C@H]3C[C@@](C)(O)[C@@H](OC(=O)CC(C)C)[C@H](C)O3)[C@H](N(C)C)[C@H]2O)[C@@H](CC=O)C[C@@H](C)[C@@H](O)/C=C/C=C/C[C@@H](C)OC(=O)C[C@H]1OC(C)=O [Josamycin, reference compound]",haematic levels of Josamycin at the 6th hour,[1],0.139 µg/mL
"CO[C@@H]1[C@@H](O[C@@H]2O[C@H](C)[C@@H](O[C@H]3C[C@@](C)(O)[C@@H](OC(=O)CC(C)C)[C@H](C)O3)[C@H](N(C)C)[C@H]2O)[C@@H](CC=O)C[C@@H](C)[C@@H](O)/C=C/C=C/C[C@@H](C)OC(=O)C[C@H]1OC(C)=O [salt of formula (I), salt of the macrolide antibiotic Josamycin with (-)-cis-1,2-epoxypropyl phosphonic acid]",toxicity,[2],very little toxic
same,alteration of toxic character,male Wistar rats,did not reveal any alteration of toxic character
same,LD50,"in vivo [3]; intravenous, read-out: LD50",418 mg/kg
same,LD50,in vivo [3]; [9],> 5000 mg/kg
same,antibacterial spectrum,[4],comparable with that of Josamycin
same,alteration of the normal embrional or fetal development,pregnant rabbits,did not cause any alteration of the normal embrional or fetal development
same,antibacterial spectrum,[5],comparable with that of Josamycin
same,growth and survival of the newborns,newborns,comparable with those of the controls
same,solubility in water,Solubility in water,high solubility in water
same,antibacterial spectrum,[6],comparable with that of Josamycin
same,absorption,[7]; oral route,highly absorbed
same,duration of tissue and haematic levels,[7]; oral route,significantly long lasting
same,tissue and haematic levels relative to equivalent amounts of Josamycin,"[7]; oral, versus free base and propionate",nearly twice
same,haematic levels of Josamycin relative to equivalent dosages of Josamycin,[7]; versus free base and propionate,twice
same,duration of haematic levels,[1],longer lasting
same,haematic levels of Josamycin at the 6th hour,[1],0.297 µg/mL
same,LD50,"in vivo [8]; intravenous, read-out: LD50",386 mg/kg
same,LD50,in vivo [8]; [9],> 5000 mg/kg
same,alteration of the normal embrional or fetal development,pregnant rats,did not cause any alteration of the normal embrional or fetal development
